This data set deals with corneas of Sprague-Dawley rats. Conditions: rat, in vivo. As for the experimental part:
For assessment of in vivo biocompatibility, animals were cared for and experiments conducted in accordance with protocols approved by the Animal Care and Use Committee of the Johns Hopkins University. Protocols are also in accordance with the ARVO Statement for the Use of Animals in Ophthalmic and Vision Research. […] Prior to implantation, rats were intraperitoneally anesthetized with a solution of Ketamine:Xylazine (75:5 mg/kg, Sigma Aldrich) and a drop of 0.5% proparacaine hydrochloride ophthalmic solution (Bausch & Lomb Inc., Tampa, Fla.) was applied to the cornea. Following implantation, the rats were evaluated for signs of infection every day for seven days. The rats were then euthanized and eyes enucleated, fixed in formalin (Sigma Aldrich) for 24 h, embedded in paraffin, cross sectioned, and stained with hematoxylin and eosin for histological evaluation.

With nylon, the “tissue reaction (histological analysis)” value is “no obvious signs of neovascularization or inflammation”.

(Values after patent publication US20190142993A1, “ULTRA-THIN, HIGH STRENGTH, DRUG-LOADED SUTURES AND COATINGS THEREOF” (The Johns Hopkins University, priority 2016, published 2019).)
